This is an account of results in ChEMBL document CHEMBL4627376, “Substituted benzyloxytricyclic compounds as retinoic acid-related orphan receptor gamma t (RORγt) agonists” (Bioorg Med Chem Lett, 2020).

Series [1] in a line: Stability in human liver microsomes assessed as parent compound remaining at 0.5 uM in presence of NADPH by MS/MS analysis. In kind it is ADME, Microsome. Particulars: read-out: Stability. A general note: Liver microsomes are vesicles of endoplasmic reticulum, rich in cytochrome P450 enzymes.
Series [2] is described as follows: Stability in mouse liver microsomes assessed as parent compound remaining at 0.5 uM in presence of NADPH by MS/MS analysis. Particulars: read-out: Stability. In kind it is ADME, Microsome.
The nature of series [3]: Stability in rat liver microsomes assessed as parent compound remaining at 0.5 uM in presence of NADPH by MS/MS analysis. In kind it is ADME, Microsome. Particulars: read-out: Stability.
Series [4] can be described thus: Clearance in C57BL6 mouse at 2 mg/kg, iv qd administered as bolus dose after 24 hrs by LC-MS/MS analysis. To be noted: in vivo. In kind it is ADME, organism-based.
The target of series [5] is T1, Nuclear receptor ROR-gamma (Mus musculus, UniProt P51450).
T1 sequence (P51450 whole entry): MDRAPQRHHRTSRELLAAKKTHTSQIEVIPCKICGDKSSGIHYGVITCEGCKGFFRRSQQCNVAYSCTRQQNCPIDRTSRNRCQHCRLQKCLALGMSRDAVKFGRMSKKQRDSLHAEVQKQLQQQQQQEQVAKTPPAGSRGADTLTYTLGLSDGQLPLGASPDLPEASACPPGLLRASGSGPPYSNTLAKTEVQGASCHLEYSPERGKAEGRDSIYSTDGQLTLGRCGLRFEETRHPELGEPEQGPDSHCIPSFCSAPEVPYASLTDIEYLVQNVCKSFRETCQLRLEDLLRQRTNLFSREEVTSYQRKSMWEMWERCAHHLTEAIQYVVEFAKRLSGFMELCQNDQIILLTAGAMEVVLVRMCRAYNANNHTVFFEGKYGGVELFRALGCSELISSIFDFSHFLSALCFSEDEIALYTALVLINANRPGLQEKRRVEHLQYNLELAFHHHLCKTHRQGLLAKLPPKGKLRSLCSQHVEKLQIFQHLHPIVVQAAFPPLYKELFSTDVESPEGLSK
Kind of series: Agonist activity at RORgammat in mouse whole blood assessed as induction of IL-17A expression. In kind it is tissue-based.

Series [6] in a line: Cmax in C57BL6 mouse at 30 mg/kg, po qd via gavage after 24 hrs by LC-MS/MS analysis. In kind it is ADME, organism-based. Set-up: dose 30 mg/kg, route oral. Particulars: in vivo.
Series [7] in a line: AUC in C57BL6 mouse at 30 mg/kg, po qd via gavage after 24 hrs by LC-MS/MS analysis. In kind it is ADME, organism-based. Details: time < 24 hr, dose 30 mg/kg, route oral. Particulars: in vivo.
A short description of series [8]: Volume of distribution at steady state in C57BL6 mouse at 2 mg/kg, iv qd administered as bolus dose after 24 hrs by LC-MS/MS analysis. In kind it is ADME, organism-based. To be noted: in vivo, read-out: Vdss.
Series [9] can be described thus: Drug level in mouse MC38 cells allografted C57BL6 mouse blood at 10 mg/kg, po BID and measured after 24 hrs. In kind it is ADME, organism-based. To be noted: whole blood, read-out: Drug uptake.
Series [10] can be described thus: AUC in C57BL6 mouse at 2 mg/kg, iv qd administered as bolus dose after 24 hrs by LC-MS/MS analysis. In kind it is ADME, organism-based. Set-up: time < 24 hr, dose 2 mg/kg, route intravenous. To be noted: in vivo.
Series [11] can be described thus: Permeability of compound at pH 7.4. In kind it is ADME. Particulars: not told, read-out: permeability.
Series [12] can be described thus: Tmax in C57BL6 mouse at 30 mg/kg, po qd via gavage after 24 hrs by LC-MS/MS analysis. In kind it is ADME, organism-based. Particulars: in vivo.
The nature of series [13]: Drug metabolism in mouse hepatocytes assessed as UGT-mediated metabolism by measuring half life. In kind it is ADME, cell-based.
A short description of series [14]: Half life in mouse hepatocytes. In kind it is ADME, cell-based, Hepatocyte.

Structures are written as SMILES.

With `CS(=O)(=O)N[C@H]1CC[C@H](C(=O)N2CC[C@@]3(S(=O)(=O)c4ccc(F)cc4)c4ccc(OCc5c(F)cccc5C(F)(F)F)cc4CC[C@@H]23)CC1`, the remaining at 0.5 µM was found to be 2% in [1], 41% in [2] and 30% in [3].
The matching figures for `O=C(N1CC[C@@]2(S(=O)(=O)c3ccc(F)cc3)c3ccc(OCc4c(F)cccc4C(F)(F)F)cc3CC[C@@H]12)C1(O)CCS(=O)(=O)CC1`: 1%, 51% and 4%.
For the molecule `NC(=O)[C@H]1CC[C@H](C(=O)N2CC[C@@]3(S(=O)(=O)c4ccc(F)cc4)c4ccc(OCc5c(F)cccc5C(F)(F)F)cc4CC[C@@H]23)CC1`, the results for the remaining at 0.5 µM in [1] and in series [3] were 17% and 39%, respectively.
By clearance is commonly meant the rate of elimination divided by the concentration. The low end stands for inefficient removal, the high end for efficient removal. As a reminder, the EC50 is the concentration needed to bring the measured effect to its halfway point. The Cmax is the peak of the concentration-time curve. Broadly, the AUC is the area under the concentration-time curve, a measure of exposure. A low value points to low exposure. The Tmax is the time at which the peak concentration occurs. As for `C[C@]1(C(=O)N2CC[C@@]3(S(=O)(=O)c4ccc(F)cc4)c4ccc(OCc5c(F)cccc5C(F)(F)F)cc4CC[C@@H]23)CC[C@H](C(=O)O)CC1`, the remaining at 0.5 µM in [1] was 80%; in series [2], 100%; in series [3], 48%. The clearance in series [4] was determined as 6.7 mL/min/kg. Moreover, in series [5], the EC50 came out at 380 nM. Besides, in series [6], the Cmax was found to be 61 µM. The AUC at 24 h was 275 µM·h in [7] and 6.5 µM·h in series [10]. The Vd in [8] was determined as 1.1 L/kg. In addition, the concentration at 24 h in series [9] turned out to be 0.1 µM. For the same molecule, the Papp in series [11] came to 40.6 ×10⁻⁶ cm/s. Besides, in [12], the Tmax is 0.5 h.
Regarding `NC(=O)N1CCC(C(=O)N2CC[C@@]3(S(=O)(=O)c4ccc(F)cc4)c4ccc(OCc5c(F)cccc5C(F)(F)F)cc4CC[C@@H]23)CC1`, the results for the remaining at 0.5 µM in series [1], in [2] and in series [3] were 3%, 57% and 33%, respectively.
Take `O=C([C@H]1CC[C@H](c2nnn[nH]2)CC1)N1CC[C@@]2(S(=O)(=O)c3ccc(F)cc3)c3ccc(OCc4c(F)cccc4C(F)(F)F)cc3CC[C@@H]12`: the remaining at 0.5 µM worked out at 55% in series [1], 82% in series [2] and 67% in [3].
The term half-life denotes how long it takes for the measured level to halve. For the molecule `O=C(O)[C@H]1CC[C@H](C(=O)N2CC[C@@]3(S(=O)(=O)c4ccc(F)cc4)c4ccc(OCc5c(F)cccc5C(F)(F)F)cc4CC[C@@H]23)CC1`, the remaining at 0.5 µM in series [1] turned out to be 97%; in series [2], 100%; in series [3], 65%. In addition, the clearance in series [4] came out at 9.1 mL/min/kg. Also, the peak level in series [6] (Cmax) was 38 µM. Also, the AUC at 24 h is 103 µM·h in series [7] and 5.4 µM·h in series [10]. The half-life in series [13] and in series [14] was more than 2 h each time. The Vd in series [8] is 1.8 L/kg. Moreover, in series [11], the Papp worked out at 10.1 ×10⁻⁶ cm/s. Besides, the Tmax in series [12] was determined as 1 h.
Turning to `O=C(CN1CCS(=O)(=O)CC1)N1CC[C@@]2(S(=O)(=O)c3ccc(F)cc3)c3ccc(OCc4c(F)cccc4C(F)(F)F)cc3CC[C@@H]12`, the remaining at 0.5 µM in [1] is 1%; in series [2], 14%; in series [3], 14%.
As to `O=C(C1CCS(=O)(=O)CC1)N1CC[C@@]2(S(=O)(=O)c3ccc(F)cc3)c3ccc(OCc4c(F)cccc4C(F)(F)F)cc3CC[C@@H]12`, the remaining at 0.5 µM in series [1] was determined as 1%; in series [2], 52%; in series [3], 18%.
